System: bitter receptors (T2Rs)
Test: Expression of bitter receptors (T2Rs) in Raw264.7 cells treated with LPS or DEX
Type: cell-based
Conditions: mouse monocyte/macrophage Raw264.7 cell line, FIG. 4
Method: The mouse monocyte/macrophage Raw264.7 cell line was also used to study T2Rs. Raw264.7 cells were treated with lipopolysaccharide (LPS) and dexamethasone (DEX).

lipopolysaccharide [LPS]
expression levels of some bitter receptors (T2Rs): strongly induced

Source: patent US20200277404A1, “COMPOSITIONS AND METHODS FOR REGULATION OF IMMUNE CELL ACTIVATION AND PROLIFERATION” (MONELL CHEMICAL SENSES CENTER, priority 2017, published 2020)
